This is an account of results in patent US9585893B2, “Flumazenil complexes, compositions comprising same and uses thereof” (COERULEUS LTD., priority 2011, dated 2017).

Counter-ions that a name gives are not always drawn. Bounds are passed on as bounds.

The format of data set [1] is physicochemical. On the procedure:
Flumazenil chloride salt consisting of flumazenil and hydrochloride acid was prepared (FIG. 1). […] The concentration of flumazenil in that composition is higher by […] than the concentration of flumazenil in the commercial product Romazicon® (Romazicon® contains 0.01% flumazenil).

Data set [2] has as its system hepatic encephalopathy in patients with cirrhosis. Particulars: intravenous infusion of 1 mg flumazenil in 20 ml saline over 3-5 minutes; cited from earlier work.
The conditions of data set [3]: adult doses; cited from earlier work.

In the case of `CCOC(=O)c1ncn2c1CN(C)C(=O)c1cc(F)ccc1-2` [Flumazenil chloride salt], the “concentration of flumazenil in the composition enabled by increased solubility” value in data set [1] is 0.66%. Consider `CCOC(=O)c1ncn2c1CN(C)C(=O)c1cc(F)ccc1-2` [flumazenil, ethyl 8-fluoro-5,6-dihydro-5-methyl-6-oxo-4H-imidazo[1,5-a][1,4]benzodiazepine-3-carboxylate], for which, in data set [2], the “effect on recovery or survival” value is “no significant effect” and the “effect on short-term improvement of hepatic encephalopathy” value is “significant beneficial effect”. Consider `NC(=O)c1cccnc1` [nicotinamide, 3-pyridinecarboxamide], for which the “dose considered to have toxic potential” value in data set [3] is reported as greater than 3 gm/day.
